PubChem BioAssay (NCI)
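Assay format: 96-well plates, 48-hour exposure. Definition used: TGI = concentration required for complete inhibition of growth.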

How the values were obtained:
Assay in all cases: NCI anticancer screen, dose series, 48 h
MDA-N = test system: MDA-N
HL-60(TB) leukemia = test system: HL-60(TB) leukemia
SK-OV-3 ovarian = test system: SK-OV-3 ovarian
OVCAR-8 ovarian = test system: OVCAR-8 ovarian
HT29 colon = test system: HT29 colon
NCI-H460 lung = test system: NCI-H460 lung
OVCAR-3 ovarian = test system: OVCAR-3 ovarian
SR leukemia = test system: SR leukemia
RPMI-8226 leukemia = test system: RPMI-8226 leukemia
BT-549 breast = test system: BT-549 breast
HOP-92 NSCLC = test system: HOP-92 NSCLC
NCI-H522 lung = test system: NCI-H522 lung

| Compound | TGI (MDA-N) [µM] | TGI (HL-60(TB) leukemia) [µM] | TGI (SK-OV-3 ovarian) [µM] | TGI (OVCAR-8 ovarian) [µM] | TGI (HT29 colon) [µM] | TGI (NCI-H460 lung) [µM] | TGI (OVCAR-3 ovarian) [µM] | TGI (SR leukemia) [µM] | TGI (RPMI-8226 leukemia) [µM] | TGI (BT-549 breast) [µM] | TGI (HOP-92 NSCLC) [µM] | TGI (NCI-H522 lung) [µM] |
| --- | --- | --- | --- | --- | --- | --- | --- | --- | --- | --- | --- | --- |
| CC1=NN2CCC(=O)N=C2S1 | > 100 | > 100 | > 100 | > 100 | > 100 | > 100 | > 100 | > 100 | > 100 | > 100 | > 100 | > 100 |
| Cc1nccn1S(=O)(=O)c1ccc(Cl)cc1 | 51 | 60.5 | > 100 | > 100 | > 100 | > 100 | > 100 | > 100 | > 100 | > 100 | 64.3 | > 100 |
| CC(C)(C)OC(=O)NNCC(O)COc1ccccc1 (stereo not drawn) | > 100 | > 100 | > 100 | > 100 | > 100 | > 100 | > 100 | > 100 | > 100 | > 100 | > 100 | > 100 |
| Fc1ccc2c(c1)nc1n2C(c2c(F)cccc2F)SC1 (stereo not drawn) | > 100 | 70 | > 100 | > 100 | > 100 | > 100 | > 100 | 58.5 | > 100 | > 100 | > 100 | > 100 |
| COC(=O)/C=C\C(C#N)(C#N)N=Cc1ccc(Br)cc1 | 20.1 | 1.27 | 33.6 | 21.5 | 6.22 | 40.5 | 24.9 | > 100 | 5.74 | 25.2 | 6.34 | 2.95 |
| CCOC(=O)CCC(NC(=O)c1ccc(Nc2nc3ccccc3nc2C(=O)OCC)s1)C(=O)OCC (stereo not drawn) | > 100 | > 100 | > 100 | > 100 | > 100 | > 100 | > 100 | > 100 | > 100 | > 100 | > 100 | > 100 |
| C=C1CC(O)C2C(=C)C(=O)OC2C2C(C)C(=O)CC12 (stereo not drawn) | 20.3 | 9.43 | > 100 | 50.9 | 42.8 | 58 | 24 | 53.2 | 39.2 | 21.5 | 33.8 | 19.9 |
| COc1ccc(C2=Nc3c(nc(SC)[nH]c3=O)NC(c3ccccc3)C2)cc1 (stereo not drawn) | 35.4 | 42.5 | 51.9 | 40.7 | 49.8 | – | > 100 | > 100 | 62 | 66.1 | > 100 | 35.7 |
| Nc1ccn(CC(O)c2cc3ccccc3[nH]2)c(=O)n1 (stereo not drawn) | > 100 | > 100 | > 100 | > 100 | > 100 | > 100 | > 100 | > 100 | > 100 | > 100 | > 100 | > 100 |
| COc1ccc(/N=N/C(=NNC(=O)c2ccc(C)cc2)c2ccc(N(C)C)cc2)cc1 | > 73.4 | > 67.7 | > 100 | > 100 | > 89.8 | > 100 | > 79.4 | 88.7 | > 70.9 | 82.9 | > 100 | 97.9 |
| COC(=O)C(CNC(=O)/C=C/c1ccc(OC(C)=O)c(OC(C)=O)c1)NC(=O)/C=C/c1ccc(OC(C)=O)c(OC(C)=O)c1 (stereo not drawn) | > 100 | – | > 100 | > 100 | > 100 | > 100 | > 100 | > 100 | > 100 | > 100 | > 100 | > 100 |
| Cc1ccc(S(=O)(=O)NC(=O)NC(CC(=O)O)C(=O)O)cc1 (stereo not drawn) | > 100 | > 100 | > 100 | > 100 | > 100 | > 100 | – | > 100 | > 100 | > 100 | > 100 | > 100 |
| CC(=O)c1c(O)cc(O)c(-c2c(C)cc(O)c3c2C(=O)c2cccc(O)c2C3=O)c1O | 30.8 | 79.7 | 27.4 | 49.5 | 31.5 | 31.7 | 56.2 | 53.8 | 35.5 | 35.3 | 26.1 | 24.7 |
| CC1=NN(c2nc(N)nc(-c3cc4ccccc4oc3=N)n2)C(C)(C)C1 | 31.2 | 46.2 | 34.7 | 53 | 40.2 | 34.2 | 31.6 | 46.8 | 42.6 | 47 | 42.7 | 39.9 |
| COc1ccc(C2NC(N)=C(C#N)C3=C2C(C)CCC3)cc1OC (stereo not drawn) | > 100 | > 100 | > 100 | > 100 | > 100 | – | > 100 | 23 | > 100 | > 100 | – | – |
| CC(C)=CCC[C@@H](C)C1=C(O)C(Nc2ccccc2)=C(C)C(=O)C1=O | > 100 | 24.4 | > 96.2 | > 100 | > 96.3 | > 64.5 | > 52.2 | > 100 | > 73.3 | > 100 | > 78.3 | – |
| CNC(=O)C1OC(n2cnc3c(NCc4cccc(I)c4)nc(Cl)nc32)C(O)C1O (stereo not drawn) | 55.4 | > 100 | 35 | 26.7 | – | – | 25.7 | 59.6 | > 100 | 28.5 | – | – |
| O=C1Nc2ccccc2SC1=C(C(=O)c1ccccc1)C(=O)c1ccccc1 | 48.8 | 0.82 | 65.3 | > 100 | > 100 | > 86.8 | 41.5 | > 100 | > 100 | > 90.2 | 99.9 | 87.1 |
| CCOC(=O)C1CCCN1C(=O)c1ccccc1Cl (stereo not drawn) | > 100 | > 100 | – | > 100 | > 100 | > 100 | > 100 | > 100 | > 100 | > 100 | > 100 | > 100 |
| O=c1[nH]c2ccc(C(F)(F)F)cc2nc1C(F)(F)F | > 100 | – | 85.7 | 77 | > 100 | > 100 | 41.8 | > 100 | > 100 | 89.8 | 30.2 | 47.6 |
| Cn1c2ccccc2c2c3c(c4c5ccccc5n(C)c4c21)C(=O)N(c1ccccc1)C3=O | > 100 | – | > 100 | > 100 | > 100 | > 100 | > 100 | > 100 | > 100 | > 100 | > 100 | > 100 |
| CC(C)(CO)CNc1cc(Cl)nc(N)n1 | > 100 | > 100 | – | > 100 | > 100 | > 100 | > 100 | > 100 | > 100 | > 100 | > 100 | > 100 |
| Cc1cc(S(=O)(=O)Nc2n[nH]c(Nc3ccccc3)n2)c(SSc2cc(Cl)c(C)cc2S(=O)(=O)Nc2n[nH]c(Nc3ccccc3)n2)cc1Cl | > 100 | 61.1 | > 100 | > 100 | > 100 | > 100 | > 100 | > 100 | > 100 | > 100 | – | – |
| O=C(O)C1CSC2(CCCN(Cc3ccccc3)C2)N1 (stereo not drawn) | > 100 | > 100 | > 100 | > 100 | > 100 | > 100 | > 100 | 34.4 | > 34.4 | > 100 | > 100 | > 100 |
| OCC(S)CS.[Bi] (stereo not drawn) | 34.4 | 46.4 | > 100 | 52.3 | 46.4 | > 100 | 24.7 | > 100 | 28.3 | 27.8 | 44.6 | 12.9 |
| Cc1cc(OCc2nnc3n2N=C(c2cc(F)c(Cl)cc2Cl)/C(=C/c2ccc(-c4ccc(Cl)cc4)o2)S3)ccc1Cl | > 50 | > 50 | – | > 50 | > 50 | > 50 | > 50 | > 50 | 30.2 | > 50 | – | > 50 |
